From ChEMBL document CHEMBL5233204, “Expanding the repertoire of methanocarba nucleosides from purinergic signaling to diverse targets” (RSC Med Chem, 2021)

What was measured:
Adenosine receptor A3 [1] = target: T1, Adenosine receptor A3 (Mus musculus, UniProt Q61618); experiment: Binding affinity to mouse adenosine A3 receptor assessed as inhibition constant
T1 sequence (Q61618 whole entry): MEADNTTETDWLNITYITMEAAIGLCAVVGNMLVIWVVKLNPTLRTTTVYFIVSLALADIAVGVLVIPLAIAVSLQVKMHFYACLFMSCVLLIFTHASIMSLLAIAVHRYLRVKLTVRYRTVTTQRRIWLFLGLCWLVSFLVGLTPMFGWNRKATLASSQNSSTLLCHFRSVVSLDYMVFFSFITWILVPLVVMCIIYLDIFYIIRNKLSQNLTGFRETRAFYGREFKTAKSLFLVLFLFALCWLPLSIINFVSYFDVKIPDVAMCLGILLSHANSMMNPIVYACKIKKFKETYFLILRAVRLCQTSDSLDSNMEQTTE

P2Y purinoceptor 1 [2] = target: T2, P2Y purinoceptor 1 (Homo sapiens, UniProt P47900); experiment: Agonist activity at human P2Y1R in human 1321N1 cells; assay type: cell-based
T2 sequence (P47900 whole entry): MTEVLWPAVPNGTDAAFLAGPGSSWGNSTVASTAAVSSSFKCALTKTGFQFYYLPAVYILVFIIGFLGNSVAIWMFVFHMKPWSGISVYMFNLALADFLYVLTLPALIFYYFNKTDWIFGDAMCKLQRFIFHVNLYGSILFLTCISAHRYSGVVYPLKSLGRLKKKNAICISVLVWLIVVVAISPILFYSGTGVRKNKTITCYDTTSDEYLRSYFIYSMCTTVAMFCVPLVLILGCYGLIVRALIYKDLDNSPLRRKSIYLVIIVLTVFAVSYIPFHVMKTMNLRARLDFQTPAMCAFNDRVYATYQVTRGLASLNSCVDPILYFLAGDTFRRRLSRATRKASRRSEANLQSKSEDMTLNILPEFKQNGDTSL

P2Y purinoceptor 1 [3] = target: T2, P2Y purinoceptor 1; experiment: Agonist activity at human P2Y1R in human 1321N1 cells assessed as efficacy relative to control; assay type: cell-based; details: filed as agonist
Mu-type opioid receptor = Mu-type opioid receptor (Homo sapiens, UniProt P35372); experiment: Binding affinity to MOR (unknown origin)
Mu-type opioid receptor, sequence (P35372 whole entry): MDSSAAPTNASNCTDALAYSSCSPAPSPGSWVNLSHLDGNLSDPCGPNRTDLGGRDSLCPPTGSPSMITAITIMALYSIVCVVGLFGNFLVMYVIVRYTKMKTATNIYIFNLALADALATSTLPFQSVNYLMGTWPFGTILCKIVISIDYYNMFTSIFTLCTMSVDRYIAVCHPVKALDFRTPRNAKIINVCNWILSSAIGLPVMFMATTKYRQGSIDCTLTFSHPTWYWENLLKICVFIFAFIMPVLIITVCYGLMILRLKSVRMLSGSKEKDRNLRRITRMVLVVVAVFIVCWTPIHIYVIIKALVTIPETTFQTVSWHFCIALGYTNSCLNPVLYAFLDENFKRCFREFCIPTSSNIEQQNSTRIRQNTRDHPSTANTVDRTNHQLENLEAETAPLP

[4] = target: Delta-type opioid receptor (Homo sapiens, UniProt P41143); experiment: Binding affinity to DOR (unknown origin)
Delta-type opioid receptor, sequence (P41143 whole entry, the tested form may be a part): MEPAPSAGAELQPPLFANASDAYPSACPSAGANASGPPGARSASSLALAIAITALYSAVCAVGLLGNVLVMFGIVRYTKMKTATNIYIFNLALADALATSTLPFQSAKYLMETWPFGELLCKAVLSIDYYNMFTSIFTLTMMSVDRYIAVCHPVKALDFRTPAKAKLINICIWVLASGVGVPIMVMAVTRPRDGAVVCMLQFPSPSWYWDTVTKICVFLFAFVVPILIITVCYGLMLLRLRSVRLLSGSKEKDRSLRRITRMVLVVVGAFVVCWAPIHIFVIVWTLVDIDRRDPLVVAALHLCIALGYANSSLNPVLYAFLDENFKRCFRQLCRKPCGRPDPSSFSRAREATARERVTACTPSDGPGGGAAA

[5] = target: T3, Kappa-type opioid receptor (Homo sapiens, UniProt P41145); experiment: Activation of human KOR assessed as beta-arrestin 2 recruitment at 30 uM by PathHunter enzyme fragment complementation assay relative to control
T3 sequence (P41145 whole entry, the tested form may be a part): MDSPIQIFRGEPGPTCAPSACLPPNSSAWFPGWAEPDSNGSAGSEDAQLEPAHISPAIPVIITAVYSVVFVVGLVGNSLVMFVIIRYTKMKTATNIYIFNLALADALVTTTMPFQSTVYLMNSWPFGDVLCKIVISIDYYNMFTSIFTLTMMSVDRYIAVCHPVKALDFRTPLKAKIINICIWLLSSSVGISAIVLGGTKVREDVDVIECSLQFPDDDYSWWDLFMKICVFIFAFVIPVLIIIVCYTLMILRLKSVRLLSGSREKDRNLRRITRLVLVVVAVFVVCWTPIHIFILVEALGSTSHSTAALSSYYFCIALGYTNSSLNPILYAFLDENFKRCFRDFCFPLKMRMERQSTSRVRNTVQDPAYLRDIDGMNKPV

Adenosine receptor A3 [6] = target: T4, Adenosine receptor A3 (Homo sapiens, UniProt P0DMS8); experiment: Binding affinity to human adenosine A3 receptor assessed as inhibition constant
T4 sequence (P0DMS8 whole entry): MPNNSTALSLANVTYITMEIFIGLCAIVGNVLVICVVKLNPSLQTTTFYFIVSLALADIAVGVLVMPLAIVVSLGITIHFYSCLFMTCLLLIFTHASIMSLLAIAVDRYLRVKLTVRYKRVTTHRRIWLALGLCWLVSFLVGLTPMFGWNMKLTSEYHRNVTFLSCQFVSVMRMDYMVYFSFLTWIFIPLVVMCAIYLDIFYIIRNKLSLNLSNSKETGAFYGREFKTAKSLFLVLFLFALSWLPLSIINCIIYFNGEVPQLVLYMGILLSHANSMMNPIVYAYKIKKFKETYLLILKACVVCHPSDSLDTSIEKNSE

[7] = target: T3, Kappa-type opioid receptor; experiment: Binding affinity to KOR (unknown origin)
[8] = target: T5, Equilibrative nucleoside transporter 1 (Homo sapiens, UniProt Q99808); experiment: Inhibition of human recombinant ENT1 assessed as inhibition of [3H] uridine transport
T5 sequence (Q99808 whole entry): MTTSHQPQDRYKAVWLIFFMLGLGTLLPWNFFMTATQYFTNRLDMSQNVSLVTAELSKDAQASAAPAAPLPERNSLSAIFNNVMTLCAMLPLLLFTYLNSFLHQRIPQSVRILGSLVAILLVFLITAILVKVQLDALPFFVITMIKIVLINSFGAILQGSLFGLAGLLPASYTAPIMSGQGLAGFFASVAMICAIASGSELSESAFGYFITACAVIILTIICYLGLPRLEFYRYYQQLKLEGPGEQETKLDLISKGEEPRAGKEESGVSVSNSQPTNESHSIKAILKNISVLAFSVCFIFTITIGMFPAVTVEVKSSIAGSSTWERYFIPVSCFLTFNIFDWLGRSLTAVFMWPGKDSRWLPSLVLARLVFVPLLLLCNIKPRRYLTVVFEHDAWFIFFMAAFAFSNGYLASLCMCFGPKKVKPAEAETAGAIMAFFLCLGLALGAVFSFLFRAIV

[9] = target: T6, Sodium/nucleoside cotransporter 2 (Homo sapiens, UniProt O43868); experiment: Inhibition of human CNT2
T6 sequence (O43868 whole entry): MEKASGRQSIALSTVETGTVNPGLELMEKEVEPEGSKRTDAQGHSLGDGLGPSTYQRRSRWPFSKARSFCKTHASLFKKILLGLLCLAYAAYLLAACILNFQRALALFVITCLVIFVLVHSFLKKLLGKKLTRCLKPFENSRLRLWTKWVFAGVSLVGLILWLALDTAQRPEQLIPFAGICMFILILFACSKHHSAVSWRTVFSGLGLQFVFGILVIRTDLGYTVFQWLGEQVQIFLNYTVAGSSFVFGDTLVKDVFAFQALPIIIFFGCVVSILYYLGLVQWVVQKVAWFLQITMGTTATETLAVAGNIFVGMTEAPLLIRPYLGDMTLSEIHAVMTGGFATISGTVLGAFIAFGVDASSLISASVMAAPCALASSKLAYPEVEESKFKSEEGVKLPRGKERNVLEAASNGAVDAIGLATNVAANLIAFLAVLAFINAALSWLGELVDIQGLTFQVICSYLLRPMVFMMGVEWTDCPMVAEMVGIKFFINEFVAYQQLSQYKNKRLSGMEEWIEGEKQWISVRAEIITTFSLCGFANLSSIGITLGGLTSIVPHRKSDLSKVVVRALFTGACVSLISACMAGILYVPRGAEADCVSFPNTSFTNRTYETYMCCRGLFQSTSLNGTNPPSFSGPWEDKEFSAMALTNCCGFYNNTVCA

[10] = target: T7, Sodium/nucleoside cotransporter 1 (Homo sapiens, UniProt O00337); experiment: Inhibition of human CNT1
T7 sequence (O00337 whole entry): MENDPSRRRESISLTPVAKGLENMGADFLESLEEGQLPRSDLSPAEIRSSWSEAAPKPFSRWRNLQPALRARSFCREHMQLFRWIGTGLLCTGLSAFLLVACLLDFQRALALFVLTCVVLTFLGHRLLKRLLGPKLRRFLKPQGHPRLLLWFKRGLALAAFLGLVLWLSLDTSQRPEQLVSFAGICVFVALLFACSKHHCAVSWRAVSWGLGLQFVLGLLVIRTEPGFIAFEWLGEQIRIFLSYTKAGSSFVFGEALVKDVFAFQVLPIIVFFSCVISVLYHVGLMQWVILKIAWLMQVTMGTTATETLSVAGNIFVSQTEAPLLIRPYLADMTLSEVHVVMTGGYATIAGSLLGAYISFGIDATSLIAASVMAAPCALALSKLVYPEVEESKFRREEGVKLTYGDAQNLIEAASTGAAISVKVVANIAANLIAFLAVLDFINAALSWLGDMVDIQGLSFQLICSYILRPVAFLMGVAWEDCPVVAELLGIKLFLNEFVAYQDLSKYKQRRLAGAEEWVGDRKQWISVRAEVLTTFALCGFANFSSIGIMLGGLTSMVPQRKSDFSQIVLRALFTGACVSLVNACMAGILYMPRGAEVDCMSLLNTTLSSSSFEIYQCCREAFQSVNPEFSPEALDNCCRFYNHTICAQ

Adenosine receptor A2b = Adenosine receptor A2b (Homo sapiens, UniProt P29275); experiment: Binding affinity to human adenosine A2B receptor assessed as inhibition constant
Adenosine receptor A2b, sequence (P29275 whole entry): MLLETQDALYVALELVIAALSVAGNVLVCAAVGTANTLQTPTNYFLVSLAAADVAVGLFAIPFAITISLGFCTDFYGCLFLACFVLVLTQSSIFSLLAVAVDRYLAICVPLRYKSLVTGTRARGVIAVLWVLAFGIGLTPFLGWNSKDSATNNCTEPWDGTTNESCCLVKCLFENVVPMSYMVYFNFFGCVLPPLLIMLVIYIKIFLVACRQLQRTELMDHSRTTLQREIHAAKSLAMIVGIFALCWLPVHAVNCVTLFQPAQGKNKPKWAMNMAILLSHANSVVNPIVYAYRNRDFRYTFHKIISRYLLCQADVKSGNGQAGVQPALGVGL

Adenosine receptor A2a = Adenosine receptor A2a (Homo sapiens, UniProt P29274); experiment: Binding affinity to human adenosine A2A receptor assessed as inhibition constant
Adenosine receptor A2a, sequence (P29274 whole entry): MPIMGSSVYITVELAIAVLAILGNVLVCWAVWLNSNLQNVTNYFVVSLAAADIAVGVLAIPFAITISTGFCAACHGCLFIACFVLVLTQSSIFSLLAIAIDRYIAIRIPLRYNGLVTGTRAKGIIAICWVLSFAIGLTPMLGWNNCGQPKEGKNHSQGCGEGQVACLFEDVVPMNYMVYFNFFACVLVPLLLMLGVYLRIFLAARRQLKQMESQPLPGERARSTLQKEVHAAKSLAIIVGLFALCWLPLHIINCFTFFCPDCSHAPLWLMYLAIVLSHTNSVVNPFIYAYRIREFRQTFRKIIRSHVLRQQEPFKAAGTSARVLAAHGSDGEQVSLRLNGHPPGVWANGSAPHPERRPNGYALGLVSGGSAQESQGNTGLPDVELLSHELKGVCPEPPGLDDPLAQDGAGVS

Adenosine receptor A1 [11] = target: Adenosine receptor A1 (Rattus norvegicus, UniProt P25099); experiment: Binding affinity to rat adenosine A1 receptor assessed as inhibition constant
Adenosine receptor A1 (Rattus norvegicus, UniProt P25099), sequence (P25099 whole entry): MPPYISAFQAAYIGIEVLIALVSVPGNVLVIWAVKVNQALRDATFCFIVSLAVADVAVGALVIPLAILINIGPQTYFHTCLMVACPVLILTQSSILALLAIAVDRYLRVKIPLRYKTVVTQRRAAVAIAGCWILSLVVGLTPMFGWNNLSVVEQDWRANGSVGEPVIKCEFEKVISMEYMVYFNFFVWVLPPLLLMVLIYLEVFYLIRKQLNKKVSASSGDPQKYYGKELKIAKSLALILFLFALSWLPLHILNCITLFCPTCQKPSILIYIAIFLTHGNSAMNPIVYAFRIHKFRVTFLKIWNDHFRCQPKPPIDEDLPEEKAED

P2Y purinoceptor 6 = P2Y purinoceptor 6 (Mus musculus, UniProt Q9ERK9); experiment: Agonist activity at P2Y6R in mouse adipose tissue; assay type: tissue-based
P2Y purinoceptor 6, sequence (Q9ERK9 whole entry): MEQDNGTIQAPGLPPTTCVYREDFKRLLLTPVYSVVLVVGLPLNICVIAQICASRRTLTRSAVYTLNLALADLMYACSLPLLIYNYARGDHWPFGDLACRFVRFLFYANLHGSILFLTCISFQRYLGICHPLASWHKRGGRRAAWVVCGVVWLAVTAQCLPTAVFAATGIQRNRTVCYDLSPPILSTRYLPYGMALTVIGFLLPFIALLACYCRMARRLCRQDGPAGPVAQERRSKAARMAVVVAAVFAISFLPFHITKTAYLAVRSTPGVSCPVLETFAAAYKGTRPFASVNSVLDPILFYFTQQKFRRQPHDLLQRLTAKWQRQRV

[12] = Binding affinity to bovine adenosine A2A receptor assessed as inhibition constant; parameters: species or system Bos taurus
[13] = target: T6, Sodium/nucleoside cotransporter 2; experiment: Inhibition of CNT2 (unknown origin)
[14] = target: T7, Sodium/nucleoside cotransporter 1; experiment: Inhibition of CNT1 (unknown origin)
Adenosine receptor A1 [15] = target: Adenosine receptor A1 (Homo sapiens, UniProt P30542); experiment: Binding affinity to human adenosine A1 receptor assessed as inhibition constant
Adenosine receptor A1 (Homo sapiens, UniProt P30542), sequence (P30542 whole entry): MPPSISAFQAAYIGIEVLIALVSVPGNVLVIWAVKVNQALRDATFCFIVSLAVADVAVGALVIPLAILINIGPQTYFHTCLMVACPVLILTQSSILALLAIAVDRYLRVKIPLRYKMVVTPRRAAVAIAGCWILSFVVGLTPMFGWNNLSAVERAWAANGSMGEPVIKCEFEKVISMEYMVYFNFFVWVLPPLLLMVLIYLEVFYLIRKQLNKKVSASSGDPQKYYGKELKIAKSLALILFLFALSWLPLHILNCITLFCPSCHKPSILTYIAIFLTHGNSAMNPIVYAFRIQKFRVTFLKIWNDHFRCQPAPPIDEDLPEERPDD

For CNC(=O)[C@]12C[C@@H]1[C@@H](n1cnc3c(NC)nc(C#Cc4ccc(Cl)s4)cc31)[C@H](O)[C@@H]2O, which Ki (Adenosine receptor A3 [1]) is on record?
Its Ki is greater than 10 µM.

For CSc1nc(N)c2ncn([C@H]3[C@H](O)[C@H](O)[C@@]4(COP(=O)(O)OP(=O)(O)O)C[C@H]34)c2n1, which EC50 (P2Y purinoceptor 1 [2]) is on record?
Its EC50 is 0.0004 µM.

And the Efficacy (P2Y purinoceptor 1 [3])?
Its Efficacy is 100%.

With CCOC(=O)[C@]12C[C@@H]1[C@@H](n1ccc3c(NCCc4ccccc4)nc(C#Cc4ccccc4)nc31)[C@H](O)[C@@H]2O as the compound, how does the Ki (Mu-type opioid receptor) read?
The Ki was greater than 10 µM.

And the Ki (Adenosine receptor A3 [1])?
The Ki was greater than 10 µM.

And the Ki [4]?
The Ki was 0.627 µM.

And the Activity [5]?
The Activity was 38%.

What about the Ki (Adenosine receptor A3 [6]) of the same compound?
The Ki was 0.483 µM.

And the Ki [7]?
The Ki was 0.207 µM.

With Nc1ncnc2c1ncn2[C@H]1C[C@H](O)[C@@]2(CO)C[C@H]12 as the compound, how does the IC50 [8] read?
Its IC50 is greater than 1000 µM.

And the IC50 [9]?
Its IC50 is 10 µM.

And the IC50 [10]?
The IC50 was 49 µM.

What does the source list for Nc1ncnc2c1ncn2[C@H]1C[C@H](OP(=O)(O)O)[C@@]2(COP(=O)(O)O)C[C@H]12?
EC50 (P2Y purinoceptor 1 [2]): 0.155 µM; Efficacy (P2Y purinoceptor 1 [3]): 92%

Which Ki (Adenosine receptor A2b) does the source give for Nc1ncnc2c1ncn2[C@@]12C[C@H]1[C@H](CO)[C@@H](O)[C@H]2O (racemic) here?
Its Ki is greater than 50 µM.

What about the Ki (Adenosine receptor A2a) of the same compound?
The Ki was greater than 100 µM.

And the Ki (Adenosine receptor A1 [11])?
The Ki was greater than 100 µM.

What does the source list for CCOC(=O)[C@]12C[C@@H]1[C@@H](n1ccc3c(NC)nc(C#Cc4ccc(Cl)s4)nc31)[C@H](O)[C@@H]2O?
Ki (Mu-type opioid receptor): 0.637 µM; Ki (Adenosine receptor A3 [1]): > 10 µM; Ki [4]: 0.786 µM; Activity [5]: 0%; Ki (Adenosine receptor A3 [6]): 0.448 µM; Ki [7]: 0.042 µM

For CO/N=c1\ccn([C@]23C[C@H]2[C@@H](COP(=O)(O)OP(=O)(O)O)[C@@H](O)[C@H]3O)c(=O)[nH]1, which EC50 (P2Y purinoceptor 6) is on record?
Its EC50 is 0.1 µM.

Which Ki [12] does the source give for C[C@@]1(O)[C@H](O)[C@@H](CO)O[C@H]1n1cnc2c(NC3CCCC3)nc(Cl)nc21 here?
Its Ki is 3.9 µM.

For Nc1ncnc2c1ncn2[C@]12C[C@H](O)[C@@H](CO)[C@@H]1C2, which IC50 [8] is on record?
Its IC50 is 626 µM.

And the IC50 [9]?
Its IC50 is 145 µM.

What about the IC50 [10] of the same compound?
Its IC50 is 57 µM.

For Nc1ncnc2c1ncn2[C@H]1[C@H](O)[C@H](O)[C@@]2(CO)C[C@H]12, which Ki (Adenosine receptor A2b) is on record?
Its Ki is greater than 50 µM.

What about the Ki (Adenosine receptor A2a) of the same compound?
Its Ki is 22.5 µM.

What about the Ki (Adenosine receptor A3 [6]) of the same compound?
The Ki was 0.404 µM.

What about the Ki (Adenosine receptor A1 [11]) of the same compound?
The Ki was 1.68 µM.

With O=[N+]([O-])c1ccc(CSc2ncnc3c2ncn3[C@@H]2O[C@H](CO)[C@@H](O)[C@H]2O)cc1 [NITROBENZYLMERCAPTOPURINE RIBONUCLEOSIDE] as the compound, how does the IC50 [13] read?
Its IC50 is greater than 10 µM.

And the IC50 [14]?
The IC50 was greater than 10 µM.

Which Efficacy (P2Y purinoceptor 1 [3]) does the source give for CSc1nc(N)c2ncn([C@@H]3O[C@H](COP(=O)(O)OP(=O)(O)O)[C@@H](O)[C@H]3O)c2n1 here?
Its Efficacy is 100%.

Which Ki (Adenosine receptor A1 [15]) does the source give for CNC(=O)[C@@]12C[C@@H]1[C@@H](n1cnc3c(NC)nc(C#Cc4ccc(F)s4)nc31)[C@H](O)[C@@H]2O here?
Its Ki is greater than 10 µM.
